Results from patent publication US20070232601A1, “Vla-4 Inhibitor” (priority 2004, published 2007).
pKi: −log10 of the molar value.

Key:
[1] = Intracorporeal kinetics and oral absorbing property test (dog, oral cassette); type: in vivo; settings: orally administered, 0.5 mg/kg cassette; for AUC (total area under the plasma concentration versus time curve): LC/MS/MS
Description: Intracorporeal Kinetics and Oral Absorbing Property Test: A pharmacokinetic parameter when a test substance was orally administered to a dog by 0.5 mg/kg cassette was as follows.

[2] = target: T1, hα4 and β1 integrins (VLA-4) (Homo sapiens, UniProt P05556+P13612); test: In vitro evaluation: inhibition of binding of CHO cells expressing hα4 and β1 integrins to Eu3+-hVCAM-1 D1D7-IgG; settings: ligand Eu3+-hVCAM-1 D1D7-IgG 2 nM, Ki calculated from IC50
T1 construct: expressed in transfected cells; host or cells: CHO cells
How it was run: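 CHO cells stably expressing hα4β1 were cultured 2 days, then incubated 1 h at room temperature with Eu3+-hVCAM-1 D1D7-IgG (added as 2 nM solution) and compound in HEPES pH 7.5 with Ca2+, Mg2+ and 4 mM Mn2+, ± 6% human serum albumin. Bound europium was read by time-resolved fluorescence; IC50 was converted to Ki using Scatchard-derived Kd.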

[3] = Dispersibility test in Japanese Pharmacopoeia First and Second Solution; type: physicochemical; settings: for Dispersibility in Japanese Pharmacopoeia First Solution: JP1, pH 1.2; for Dispersibility in Japanese Pharmacopoeia Second Solution: JP2, pH 6.8
Description: Dispersibility of a test substance in Japanese Pharmacopoeia First Solution (JP1, pH 1.2) and Japanese Pharmacopoeia Second Solution (JP2, pH 6.8) was evaluated.

T1 sequence (P13612 34-1032): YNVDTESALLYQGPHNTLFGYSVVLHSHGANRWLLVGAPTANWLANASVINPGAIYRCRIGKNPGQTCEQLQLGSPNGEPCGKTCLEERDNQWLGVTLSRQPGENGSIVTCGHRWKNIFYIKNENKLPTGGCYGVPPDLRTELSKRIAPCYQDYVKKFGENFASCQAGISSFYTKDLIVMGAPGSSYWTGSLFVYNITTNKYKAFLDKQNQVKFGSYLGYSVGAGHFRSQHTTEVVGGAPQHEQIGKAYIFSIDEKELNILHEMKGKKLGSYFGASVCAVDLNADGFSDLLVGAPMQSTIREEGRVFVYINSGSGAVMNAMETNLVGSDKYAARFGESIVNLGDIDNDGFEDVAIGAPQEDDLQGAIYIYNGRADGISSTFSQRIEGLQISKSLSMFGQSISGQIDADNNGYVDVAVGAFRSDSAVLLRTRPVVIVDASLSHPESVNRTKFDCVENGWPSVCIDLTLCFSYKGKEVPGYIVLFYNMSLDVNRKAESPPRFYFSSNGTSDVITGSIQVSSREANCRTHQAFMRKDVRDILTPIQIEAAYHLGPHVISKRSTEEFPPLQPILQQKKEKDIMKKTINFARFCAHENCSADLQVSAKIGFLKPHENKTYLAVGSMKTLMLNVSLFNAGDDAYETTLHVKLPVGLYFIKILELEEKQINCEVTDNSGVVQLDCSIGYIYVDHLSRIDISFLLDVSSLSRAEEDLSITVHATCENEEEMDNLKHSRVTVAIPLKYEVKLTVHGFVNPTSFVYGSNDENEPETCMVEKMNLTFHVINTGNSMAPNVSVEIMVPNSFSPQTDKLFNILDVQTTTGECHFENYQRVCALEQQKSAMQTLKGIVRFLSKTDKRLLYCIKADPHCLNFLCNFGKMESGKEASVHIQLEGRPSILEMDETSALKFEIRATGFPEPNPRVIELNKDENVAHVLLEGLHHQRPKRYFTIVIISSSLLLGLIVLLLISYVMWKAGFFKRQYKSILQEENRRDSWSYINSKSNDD
T1 sequence (P05556 21-798): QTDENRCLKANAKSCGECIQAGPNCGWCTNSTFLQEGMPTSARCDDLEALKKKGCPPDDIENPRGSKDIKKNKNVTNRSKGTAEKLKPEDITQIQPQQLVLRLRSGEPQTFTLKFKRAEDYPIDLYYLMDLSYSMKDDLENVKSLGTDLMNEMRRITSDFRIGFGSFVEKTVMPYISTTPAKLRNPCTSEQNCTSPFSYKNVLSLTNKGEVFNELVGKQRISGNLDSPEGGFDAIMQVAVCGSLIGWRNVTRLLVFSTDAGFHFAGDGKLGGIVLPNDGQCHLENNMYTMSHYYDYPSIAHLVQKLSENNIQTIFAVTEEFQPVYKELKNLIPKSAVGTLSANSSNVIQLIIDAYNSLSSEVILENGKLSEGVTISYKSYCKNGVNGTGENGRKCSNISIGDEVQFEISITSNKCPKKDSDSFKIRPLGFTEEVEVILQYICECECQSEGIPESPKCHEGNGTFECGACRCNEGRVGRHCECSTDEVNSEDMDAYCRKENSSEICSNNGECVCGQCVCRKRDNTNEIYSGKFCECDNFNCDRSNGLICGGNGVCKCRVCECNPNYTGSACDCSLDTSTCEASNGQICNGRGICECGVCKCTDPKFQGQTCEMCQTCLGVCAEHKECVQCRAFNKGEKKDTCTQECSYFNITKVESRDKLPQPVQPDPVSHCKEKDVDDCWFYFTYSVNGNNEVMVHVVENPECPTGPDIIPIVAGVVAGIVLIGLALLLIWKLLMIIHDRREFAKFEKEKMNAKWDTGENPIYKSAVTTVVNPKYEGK

SMILES	Cltot (apparent plasma clearance) [1]	AUC (total area under the plasma concentration versus time curve) [1]	pKi [2]	Dispersibility in Japanese Pharmacopoeia First Solution [3]	Dispersibility in Japanese Pharmacopoeia Second Solution [3]
COC[C@@H]1CC[C@@H](c2ncc(CCC(=O)O)s2)N1C(=O)Cc1ccc2nc(Nc3cc(F)ccc3C)oc2c1 [Example 58]	0.59 mL/min/kg	14860 ng·h/mL	8.17	–	–
Cn1cc(C(=O)Nc2cc(Cl)c(CC(=O)N3[C@H](c4ncc(CCC(=O)O)s4)C[C@@H]4CCCC[C@@H]43)cc2Cl)c2ccccc21 [Example 60, 3-[2-[1-[2,5-Dichloro-4-(1-methyl-3-indolylcarbonyl)aminophenylacetyl]-(2S)-octahydroindolyl]-5-thiazolyl]propionic acid]	0.42 mL/min/kg	19770 ng·h/mL	8.07	–	–
CO[C@H]1C[C@@H](c2ncc(CCC(=O)O)s2)N(C(=O)Cc2cc(Cl)c(NC(=O)c3cn(C)c4ccccc34)cc2F)C1 [Example 2, 3-[2-[1-[5-Chloro-2-fluoro-4-(1-methyl-3-indolylcarbonyl)aminophenylacetyl]-(4S)-methoxy-(2S)-pyrrolidinyl]-5-thiazolyl]propionic acid]	0.81 mL/min/kg	10690 ng·h/mL	9.07	97 µg/mL	>2000 µg/mL
CO[C@H]1C[C@@H](c2ncc(CCC(=O)O)s2)N(C(=O)Cc2cc(Cl)c(NC(=O)c3csc4ccccc34)cc2F)C1 [Example 4, 3-[2-[1-[4-[(3-Benzo[b]thienylcarbonyl)amino]-5-chloro-2-fluorophenylacetyl]-(4S)-methoxy-(2S)-pyrrolidinyl]-5-thiazolyl]propionic acid]	0.82 mL/min/kg	10240 ng·h/mL	9.14	–	–
CC(C)O[C@H]1C[C@@H](c2ncc(CCC(=O)O)s2)N(C(=O)Cc2cc(Cl)c(NC(=O)c3csc4ccccc34)cc2F)C1 [Example 36, 3-[2-[1-[4-[(3-Benzo[b]thienylycarbonyl)amino]-5-chloro-2-fluorophenylacetyl]-4S-isopropoxy-(2S)-pyrrolidinyl]-5-thiazolyl]propionic acid]	0.57 mL/min/kg	14935 ng·h/mL	8.77	–	–
COC[C@@H]1CC[C@@H](c2ncc(CCC(=O)O)s2)N1C(=O)Cc1ccc2nc(Nc3cc(F)ccc3C)oc2c1F [Example 57, 3-[2-[1-[7-Fluoro-2-(5-fluoro-2-methylphenyl)-amino-6-benzoxazolylacetyl]-(5S)-methoxymethyl-(2S)-pyrrolidinyl]-5-thiazolyl]propionic acid]	0.31 mL/min/kg	27620 ng·h/mL	8.36	–	–
O=C(O)CCc1cnc([C@@H]2[C@@H](O)CCN2C(=O)Cc2cc(Cl)c(Nc3nc4ccccc4s3)cc2F)s1 [Example 120, 3-[2-[1-[4-(2-Benzothiazolyl)amino-5-chloro-2-fluorophenyl]acetyl-(3S)-hydroxy-(2S)-pyrrolidinyl]-5-thiazolyl]propionic acid]	–	–	8.01	320 µg/mL	760 µg/mL
O=C(O)CCc1cnc([C@@H]2C[C@H](N3CCN(CC(F)(F)F)CC3)CN2C(=O)Cc2cc(Cl)c(NC(=O)c3csc4ccccc34)cc2F)s1 [Example 81, 3-[2-[1-[4-(3-Benzo[b]thiophenylcarbonylamino)-5-chloro-2-fluorophenylacetyl]-(4S)-[1-(4-(2,2,2-trifluoro)ethyl)piperazinyl]-(2S)-pyrrolidinyl]-5-thiazolyl]propionic acid]	–	–	8.89	210 µg/mL	680 µg/mL
C[C@@H]1CN([C@H]2C[C@@H](c3ncc(CCC(=O)O)s3)N(C(=O)Cc3cc(Cl)c(NC(=O)c4cn(C)c5ccccc45)cc3Cl)C2)C[C@H](C)O1 [Example 86, 3-[2-[1-[2,5-Dichloro-4-(1-methyl-3-indolylcarbonylamino)phenylacetyl]-(4S)-[4-(cis-2,6-dimethyl)morpholinyl]-(2S)-pyrrolidinyl]-5-thiazolyl]propionic acid]	–	–	9.00	1200 µg/mL	1400 µg/mL
CCOC[C@@H]1CC[C@@H](c2ncc(CCC(=O)O)s2)N1C(=O)Cc1ccc2nc(Nc3cc(F)ccc3C)oc2c1F [Example 51, 3-[2-[(5S)-ethoxymethyl-1-[7-fluoro-2-(5-fluoro-2-methylphenyl)amino-6-benzoxazolylacetyl]-(2S)-pyrrolidinyl]-5-thiazolyl]propionic acid]	0.26 mL/min/kg	32310 ng·h/mL	8.34	88 µg/mL	>800 µg/mL
CO[C@H]1C[C@@H](c2ncc(CCC(=O)O)s2)N(C(=O)Cc2ccc(Nc3nc4ccccc4s3)c(Cl)c2)C1 [Example 110, 3-[2-[1-[4-(2-Benzothiazolyl)amino-3-chlorophenyl]acetyl-(4S)-methoxy-(2S)-pyrrolidinyl]-5-thiazolyl]propionic acid]	–	–	8.60	730 µg/mL	730 µg/mL
COC1CN([C@H]2C[C@@H](c3ncc(CCC(=O)O)s3)N(C(=O)Cc3cc(Cl)c(NC(=O)c4cn(C)c5ccccc45)cc3F)C2)C1 [Example 63, 3-[2-[1-[5-Chloro-2-fluoro-4-(1-methyl-3-indolylcarbonylamino)phenylacetyl]-(4S)-[1-(3-methoxy)azetidinyl]-(2S)-pyrrolidinyl]-5-thiazolyl]propionic acid]	–	–	9.05	1000 µg/mL	1000 µg/mL
Cn1cc(C(=O)Nc2cc(Cl)c(CC(=O)N3CCC[C@H]3c3ncc(CCC(=O)O)s3)cc2Cl)c2ccccc21 [Example 26, 3-[2-[1-[2,5-Dichloro-4-(1-methyl-3-indolylcarbonylamino)phenylacetyl]-(2S)-pyrrolidinyl]-5-thiazolyl]propionic acid]	–	–	8.60	4 µg/mL	660 µg/mL
O=C(O)CCc1cnc([C@@H]2[C@@H](O)CCN2C(=O)Cc2cc(Cl)c(Nc3nc4ccccc4s3)cc2Cl)s1 [Example 121, 3-[2-[1-[4-(2-Benzothiazolyl)amino-2,5-dichlorophenyl]acetyl-(3S)-hydroxy-(2S)-pyrrolidinyl]-5-thiazolyl]propionic acid]	–	–	8.07	160 µg/mL	780 µg/mL
CCOC1CN([C@H]2C[C@@H](c3ncc(CCC(=O)O)s3)N(C(=O)Cc3cc(Cl)c(NC(=O)c4cn(C)c5ccccc45)cc3Cl)C2)C1 [Example 70, 3-[2-[1-[2,5-Dichloro-4-(1-methyl-3-indolylcarbonylamino)phenylacetyl]-(4S)-[1-(3-ethoxy)azetidinyl]-(2S)-pyrrolidinyl]-5-thiazolyl]propionic acid]	–	–	8.64	960 µg/mL	960 µg/mL
C[C@@H]1CN([C@H]2C[C@@H](c3ncc(CCC(=O)O)s3)N(C(=O)Cc3cc(Cl)c(NC(=O)c4csc5ccccc45)cc3F)C2)C[C@H](C)O1 [Example 87, 3-[2-[1-[4-(3-Benzo[b]thiophenylcarbonylamino)-5-chloro-2-fluorophenylacetyl]-(4S)-[4-(cis-2,6-dimethyl)morpholinyl]-(2S)-pyrrolidinyl]-5-thiazolyl]propionic acid]	–	–	9.00	1200 µg/mL	1300 µg/mL
C[C@@H]1CN([C@H]2C[C@@H](c3ncc(CCC(=O)O)s3)N(C(=O)Cc3cc(Cl)c(NC(=O)c4coc5ccccc45)cc3F)C2)C[C@H](C)O1 [Example 89]	–	–	8.89	1100 µg/mL	1300 µg/mL
